Drawing on ChEMBL document CHEMBL5260810, “Inhibition of bromodomain-containing protein 9 for the prevention of epigenetically-defined drug resistance” (Bioorg Med Chem Lett, 2017), this text covers IC50 and Activity for eight compounds.

The structures appear in SMILES notation. Calls of active or inactive are those of the source. The calls are words filed in the database; no cut-off is given here. Some results are limits rather than exact numbers.

Chain of Chromatin remodeling regulator CECR2 (Q9BXF3 whole entry): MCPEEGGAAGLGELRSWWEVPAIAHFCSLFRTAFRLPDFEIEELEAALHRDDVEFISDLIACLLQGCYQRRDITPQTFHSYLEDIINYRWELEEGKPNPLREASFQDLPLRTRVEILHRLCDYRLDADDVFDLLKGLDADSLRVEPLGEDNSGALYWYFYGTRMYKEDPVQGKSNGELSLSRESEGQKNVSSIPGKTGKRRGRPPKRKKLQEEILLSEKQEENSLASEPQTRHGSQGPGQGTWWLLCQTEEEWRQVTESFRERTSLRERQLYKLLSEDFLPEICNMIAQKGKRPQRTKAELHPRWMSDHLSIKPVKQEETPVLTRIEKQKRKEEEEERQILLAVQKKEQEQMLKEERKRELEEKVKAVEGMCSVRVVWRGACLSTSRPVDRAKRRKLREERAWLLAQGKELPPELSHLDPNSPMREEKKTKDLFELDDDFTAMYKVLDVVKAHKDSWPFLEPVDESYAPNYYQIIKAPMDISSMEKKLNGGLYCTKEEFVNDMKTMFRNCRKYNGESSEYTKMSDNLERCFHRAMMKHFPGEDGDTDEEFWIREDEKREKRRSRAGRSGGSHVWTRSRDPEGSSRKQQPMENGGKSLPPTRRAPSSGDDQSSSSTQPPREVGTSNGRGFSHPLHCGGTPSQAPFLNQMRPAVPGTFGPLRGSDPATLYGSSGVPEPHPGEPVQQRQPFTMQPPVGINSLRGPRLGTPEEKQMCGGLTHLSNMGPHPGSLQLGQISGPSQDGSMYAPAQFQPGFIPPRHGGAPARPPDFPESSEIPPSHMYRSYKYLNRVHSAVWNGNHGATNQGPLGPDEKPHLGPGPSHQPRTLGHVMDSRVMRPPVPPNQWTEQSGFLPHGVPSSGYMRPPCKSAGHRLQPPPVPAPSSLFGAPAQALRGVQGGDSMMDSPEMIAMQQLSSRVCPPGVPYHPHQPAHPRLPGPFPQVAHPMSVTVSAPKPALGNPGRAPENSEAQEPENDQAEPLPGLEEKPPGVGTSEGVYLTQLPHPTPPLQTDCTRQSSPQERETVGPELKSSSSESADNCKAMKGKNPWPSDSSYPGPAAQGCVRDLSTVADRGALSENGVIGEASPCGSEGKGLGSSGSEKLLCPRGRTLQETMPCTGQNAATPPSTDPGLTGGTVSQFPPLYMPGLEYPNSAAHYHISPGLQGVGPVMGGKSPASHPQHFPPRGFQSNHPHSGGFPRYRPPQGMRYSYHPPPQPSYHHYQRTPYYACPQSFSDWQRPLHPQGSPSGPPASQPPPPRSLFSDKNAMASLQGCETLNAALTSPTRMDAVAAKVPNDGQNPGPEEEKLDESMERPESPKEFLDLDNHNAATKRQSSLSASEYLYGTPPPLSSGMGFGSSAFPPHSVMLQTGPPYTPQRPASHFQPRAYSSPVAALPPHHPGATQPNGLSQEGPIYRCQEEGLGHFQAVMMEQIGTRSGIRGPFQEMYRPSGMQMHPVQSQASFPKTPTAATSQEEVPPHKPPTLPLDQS

One test has as its target T1, Bromodomain-containing protein 4 (Homo sapiens, UniProt O60885). The experiment in a line: Displacement of biotinylated small-molecule ligand from recombinant His-tagged BRD4 bromodomain 1 (unknown origin) measured after 10 mins by TR-FRET assay.
Conditions: not given
As to `C/C=C/Cn1cc(-c2ccc(C(=O)N3CCOCC3)cc2)c2cc(C)[nH]c2c1=O`, the IC50 was determined as 1.6 µM.
Same read-out and setting: in the case of `C/C=C/Cn1cc(-c2ccc(C(C)(C)O)cc2)c2cc[nH]c2c1=O` it was 3.3 µM; in that of `C/C=C/Cn1cc(-c2ccc(C(=O)N3CCOCC3)c(C#N)c2)c2cc(C)[nH]c2c1=O`, 4.2 µM; in that of `C/C=C/Cn1cc(-c2ccc(C(=O)N3CCOCC3)c(Cl)c2)c2cc(C)[nH]c2c1=O`, 3.5 µM.
Regarding `C/C=C/Cn1cc(-c2ccc(C(=O)N3CCOCC3)c(C)c2)c2cc(C)[nH]c2c1=O`, the concentration for half-maximal inhibition (IC50) was 6 µM.
Regarding `C/C=C/Cn1cc(-c2ccc(C(=O)N3CCOCC3)c(OC)c2)c2cc(C)[nH]c2c1=O`, the 50% inhibitory concentration (IC50) was determined as 3.3 µM.

In a further test the target is Transcription initiation factor TFIID subunit 1 (Homo sapiens, UniProt P21675). The experiment in a line: Displacement of biotinylated small-molecule ligand from recombinant His-tagged TAF1 bromodomain 2 (unknown origin) measured after 10 mins by TR-FRET assay.
Chain of Transcription initiation factor TFIID subunit 1 (P21675 whole entry): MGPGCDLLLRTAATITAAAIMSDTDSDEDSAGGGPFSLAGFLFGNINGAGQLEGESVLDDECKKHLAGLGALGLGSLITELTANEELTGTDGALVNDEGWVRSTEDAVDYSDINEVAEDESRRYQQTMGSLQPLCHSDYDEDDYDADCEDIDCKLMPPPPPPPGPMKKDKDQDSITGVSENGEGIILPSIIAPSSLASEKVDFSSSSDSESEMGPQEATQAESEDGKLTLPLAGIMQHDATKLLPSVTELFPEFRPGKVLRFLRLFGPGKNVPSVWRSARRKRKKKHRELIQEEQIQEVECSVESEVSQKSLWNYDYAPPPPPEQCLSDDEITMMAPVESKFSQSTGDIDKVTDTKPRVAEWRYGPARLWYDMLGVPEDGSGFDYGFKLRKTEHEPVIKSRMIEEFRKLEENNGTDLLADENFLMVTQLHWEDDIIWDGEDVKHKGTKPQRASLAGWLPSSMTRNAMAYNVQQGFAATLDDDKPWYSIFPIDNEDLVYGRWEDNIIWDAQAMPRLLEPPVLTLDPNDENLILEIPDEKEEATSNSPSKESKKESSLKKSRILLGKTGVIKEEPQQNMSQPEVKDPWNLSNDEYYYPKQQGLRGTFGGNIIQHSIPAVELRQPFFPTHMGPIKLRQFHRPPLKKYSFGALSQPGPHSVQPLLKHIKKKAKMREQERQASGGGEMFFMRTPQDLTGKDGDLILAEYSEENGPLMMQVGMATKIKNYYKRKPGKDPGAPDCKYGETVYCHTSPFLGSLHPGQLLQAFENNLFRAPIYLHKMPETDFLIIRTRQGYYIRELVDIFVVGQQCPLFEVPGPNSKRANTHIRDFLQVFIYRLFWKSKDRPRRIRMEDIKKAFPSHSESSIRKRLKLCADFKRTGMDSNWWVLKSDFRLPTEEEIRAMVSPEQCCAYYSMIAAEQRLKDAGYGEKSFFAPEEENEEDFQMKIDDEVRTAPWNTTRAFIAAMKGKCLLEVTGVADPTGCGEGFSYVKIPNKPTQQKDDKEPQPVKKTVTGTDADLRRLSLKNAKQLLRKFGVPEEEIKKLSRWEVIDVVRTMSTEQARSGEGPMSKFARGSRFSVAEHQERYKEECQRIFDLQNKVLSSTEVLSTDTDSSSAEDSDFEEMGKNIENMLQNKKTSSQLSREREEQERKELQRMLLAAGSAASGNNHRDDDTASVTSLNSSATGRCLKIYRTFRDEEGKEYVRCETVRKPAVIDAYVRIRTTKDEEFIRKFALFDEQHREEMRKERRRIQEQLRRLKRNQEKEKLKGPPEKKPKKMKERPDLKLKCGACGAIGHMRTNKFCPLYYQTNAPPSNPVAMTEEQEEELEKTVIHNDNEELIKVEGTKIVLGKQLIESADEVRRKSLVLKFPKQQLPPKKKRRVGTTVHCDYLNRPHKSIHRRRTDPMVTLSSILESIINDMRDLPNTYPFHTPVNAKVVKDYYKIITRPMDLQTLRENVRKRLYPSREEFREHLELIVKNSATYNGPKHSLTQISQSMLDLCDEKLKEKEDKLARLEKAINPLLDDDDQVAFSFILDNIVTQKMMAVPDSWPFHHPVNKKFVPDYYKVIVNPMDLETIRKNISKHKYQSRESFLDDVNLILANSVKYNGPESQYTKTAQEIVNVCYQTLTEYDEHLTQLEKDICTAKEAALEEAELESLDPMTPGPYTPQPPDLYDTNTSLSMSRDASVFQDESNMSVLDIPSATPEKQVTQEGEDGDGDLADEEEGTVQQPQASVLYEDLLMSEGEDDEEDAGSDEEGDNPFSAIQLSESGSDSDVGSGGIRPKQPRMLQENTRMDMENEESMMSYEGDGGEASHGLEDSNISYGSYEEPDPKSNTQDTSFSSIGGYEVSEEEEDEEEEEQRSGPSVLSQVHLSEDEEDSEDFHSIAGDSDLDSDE
Conditions: not given
Consider `C/C=C/Cn1cc(-c2ccc(C(=O)N3CCOCC3)cc2)c2cc(C)[nH]c2c1=O`, for which the IC50 worked out at 0.75 µM.
Still for that read-out and setting: in the case of `C/C=C/Cn1cc(-c2ccc(C(C)(C)O)cc2)c2cc[nH]c2c1=O` it was 5.5 µM; in that of `C/C=C/Cn1cc(-c2ccc(C(=O)N3CCOCC3)c(C#N)c2)c2cc(C)[nH]c2c1=O`, 0.52 µM; in that of `C/C=C/Cn1cc(-c2ccc(C(=O)N3CCOCC3)c(Cl)c2)c2cc(C)[nH]c2c1=O`, 1.4 µM.
On to `C/C=C/Cn1cc(-c2ccc(C(=O)N3CCOCC3)c(C)c2)c2cc(C)[nH]c2c1=O`, for which the IC50 stood at 2.8 µM.
The same measure, in the same setting: next, `C/C=C/Cn1cc(-c2ccc(C(=O)N3CCOCC3)c(OC)c2)c2cc(C)[nH]c2c1=O`: 1.7 µM.

In the next test the target is T1, Bromodomain-containing protein 4. The experiment in a line: Displacement of biotinylated small-molecule ligand from recombinant His-tagged BRD4 bromodomain 2 (unknown origin) measured after 10 mins by TR-FRET assay.
Conditions: not given
A general note: TR-FRET usually uses a lanthanide donor and a delayed reading to cut background.
Consider `C/C=C/Cn1cc(-c2ccc(C(=O)N3CCOCC3)cc2)c2cc(C)[nH]c2c1=O`, for which the IC50 stood at 6.7 µM.
Regarding `C/C=C/Cn1cc(-c2ccc(C(C)(C)O)cc2)c2cc[nH]c2c1=O`, the IC50 was 6.1 µM.
Still for that read-out and setting: next, `C/C=C/Cn1cc(-c2ccc(C(=O)N3CCOCC3)c(C#N)c2)c2cc(C)[nH]c2c1=O`: 13.5 µM; `C/C=C/Cn1cc(-c2ccc(C(=O)N3CCOCC3)c(Cl)c2)c2cc(C)[nH]c2c1=O`: 12.3 µM; `C/C=C/Cn1cc(-c2ccc(C(=O)N3CCOCC3)c(C)c2)c2cc(C)[nH]c2c1=O`: 14.4 µM.
Still for that read-out and setting: next, `C/C=C/Cn1cc(-c2ccc(C(=O)N3CCOCC3)c(OC)c2)c2cc(C)[nH]c2c1=O`: 17.4 µM.

The test system of another test is PC-9. The experiment in a line: Cytotoxicity against human PC-9 cells assessed as decrease in drug tolerant population at 50 nM supplemented with fresh medium containing compound every 3 days for 9 days in presence of erlotinib by Beckman Coulter counting method. It is filed as functional, cell-based. Particulars: time 9.0 day.
`CC(/C=C/C(=O)NO)=C\[C@@H](C)C(=O)c1ccc(N(C)C)cc1`: the result was Active.

Another test addresses Chromatin remodeling regulator CECR2 (Homo sapiens, UniProt Q9BXF3). The experiment in a line: Displacement of biotinylated small-molecule ligand from recombinant His-tagged CECR2 (unknown origin) measured after 10 mins by TR-FRET assay.
Conditions: not given
As to `C/C=C/Cn1cc(-c2ccc(C(=O)N3CCOCC3)cc2)c2cc(C)[nH]c2c1=O`, the IC50 is 0.81 µM.
On the same count and under the same terms, next, `C/C=C/Cn1cc(-c2ccc(C(C)(C)O)cc2)c2cc[nH]c2c1=O`: 4.7 µM.
With `C/C=C/Cn1cc(-c2ccc(C(=O)N3CCOCC3)c(C#N)c2)c2cc(C)[nH]c2c1=O`, the IC50 came to 0.37 µM.
For `C/C=C/Cn1cc(-c2ccc(C(=O)N3CCOCC3)c(Cl)c2)c2cc(C)[nH]c2c1=O`, the 50% inhibitory concentration (IC50) is 0.46 µM.
The same measure, in the same setting: next, `C/C=C/Cn1cc(-c2ccc(C(=O)N3CCOCC3)c(C)c2)c2cc(C)[nH]c2c1=O`: 1 µM; `C/C=C/Cn1cc(-c2ccc(C(=O)N3CCOCC3)c(OC)c2)c2cc(C)[nH]c2c1=O`: 1 µM.

The test system of the next test is PC-9. The experiment in a line: Cytotoxicity against human PC-9 cells assessed as decrease in cell number at 1 uM supplemented with fresh medium containing compound every 3 days for 9 days by Beckman Coulter counting method. Conditions: time 3 day. Set-up: scale not given: the % may be the effect or the level left. The format is functional.
For the compound `C#Cc1cccc(Nc2ncnc3cc(OCCOC)c(OCCOC)cc23)c1` [ERLOTINIB], the Activity was above 98%.

The test system of another test is PC-9. The experiment in a line: Cytotoxicity against human PC-9 cells assessed as decrease in cell number at 50 nM supplemented with fresh medium containing compound every 3 days for 9 days by Beckman Coulter counting method. The format is functional, cell-based. Conditions: time 3.0 day.
In the case of `CC(/C=C/C(=O)NO)=C\[C@@H](C)C(=O)c1ccc(N(C)C)cc1`, the outcome was inactive.

One may read the IC50 as the concentration that inhibits the measured activity by half.
